The test system of the first assay is σ1 receptor and the μ-opiod receptor. Briefly: μ and σ1 dual binding: combined class from the Ki of both radioligand assays. Further details: species or system human; key to μ and σ1 dual binding: +: Both Ki-μ and Ki-σ1>=500 nM; ++: One Ki<500 nM while the other Ki is >=500 nM; +++: Both Ki-μ and Ki-σ1<500 nM; ++++: Both Ki-μ and Ki-σ1<100 nM. As to conditions: combined class for Ki-μ and Ki-σ1; transfected HEK-293 membranes (σ1), transfected CHO-K1 cell membranes (μ). The procedure, abridged:
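Classes combine both Ki values, split at 500 nM and 100 nM. Human μ-opioid binding used 1 nM [3H]-DAMGO on CHO-K1 membranes (27 °C, 60 min, pH 7.4, naloxone 10 μM for NSB); human σ1 used 5 nM [3H](+)-pentazocine on HEK-293 membranes (37 °C, 120 min, pH 8, haloperidol 10 μM for NSB).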
For the compound `CS(=O)(=O)Nc1cccc(C2CCN(Cc3nnc(-c4ccccc4)o3)CC2)c1` [Example 175, N-(3-(1-((5-phenyl-1,3,4-oxadiazol-2-yl)methyl)piperidin-4-yl)phenyl)methanesulfonamide], the “μ and σ1 dual binding” value is on record as “++”.
Take `CC(C)S(=O)(=O)Nc1cccc(C2CCN(Cc3cc(-c4ccccn4)no3)CC2)c1` [Example 181, N-(3-(1-((3-(pyridin-2-yl)isoxazol-5-yl)methyl)piperidin-4-yl)phenyl)propane-2-sulfonamide]: the “μ and σ1 dual binding” value is recorded as “++”.
As to `CS(=O)(=O)Nc1cccc(C2CCN(Cc3ncn(-c4ccccc4)n3)CC2)c1` [Example 182, N-(3-(1-((1-phenyl-1H-1,2,4-triazol-3-yl)methyl)piperidin-4-yl)phenyl)methanesulfonamide], the “μ and σ1 dual binding” value was “++”.
Consider `CS(=O)(=O)Nc1cccc(C2CCN(Cc3cncn3Cc3ccccc3)CC2)c1` [Example 185, N-(3-(1-((1-benzyl-1H-imidazol-5-yl)methyl)piperidin-4-yl)phenyl)methanesulfonamide], for which the “μ and σ1 dual binding” value was “++”.
As to `CC(C)S(=O)(=O)Nc1cccc(C2CCN(Cc3cn(Cc4ccccn4)cn3)CC2)c1` [Example 186, N-(3-(1-((1-(pyridin-2-ylmethyl)-1H-imidazol-4-yl)methyl)piperidin-4-yl)phenyl)propane-2-sulfonamide], the “μ and σ1 dual binding” value is recorded as “++”.
For `CC(C)S(=O)(=O)Nc1cccc(C2CCN(Cc3cncn3Cc3ccccn3)CC2)c1` [Example 187, N-(3-(1-((1-(pyridin-2-ylmethyl)-1H-imidazol-5-yl)methyl)piperidin-4-yl)phenyl)propane-2-sulfonamide], the “μ and σ1 dual binding” value is “++”.
As for `Oc1cccc(C2CCN(Cc3cn(Cc4ccccn4)cn3)CC2)c1` [Example 188, 3-(1-((1-(pyridin-2-ylmethyl)-1H-imidazol-4-yl)methyl)piperidin-4-yl)phenol], the “μ and σ1 dual binding” value is on record as “++”.
Consider `Oc1cccc(C2CCN(Cc3cn(Cc4ncccc4F)cn3)CC2)c1` [Example 189, 3-(1-((1-((3-fluoropyridin-2-yl)methyl)-1H-imidazol-4-yl)methyl)piperidin-4-yl)phenol], for which the “μ and σ1 dual binding” value is recorded as “++”.
Take `CS(=O)(=O)Nc1cccc(C2CCN(Cc3cn(-c4ccccc4)nn3)CC2)n1` [Example 191, N-(6-(1-((1-phenyl-1H-1,2,3-triazol-4-yl)methyl)piperidin-4-yl)pyridin-2-yl)methanesulfonamide]: the “μ and σ1 dual binding” value is on record as “++”.
Turning to `CCC(=O)Nc1ccnc(C2CCN(Cc3cn(-c4ccccc4)nn3)CC2)c1` [Example 192, N-(2-(1-((1-phenyl-1H-1,2,3-triazol-4-yl)methyl)piperidin-4-yl)pyridin-4-yl)propionamide], the “μ and σ1 dual binding” value was “++”.
For `CCC(=O)Nc1cccc(C2CCN(Cc3cn(Cc4ccccc4)nn3)CC2)n1` [Example 199, N-(6-(1-((1-benzyl-1H-1,2,3-triazol-4-yl)methyl)piperidin-4-yl)pyridin-2-yl)propionamide], the “μ and σ1 dual binding” value is reported as “++”.
For the compound `CCC(=O)Nc1cccc(C2CCN(Cc3cn([C@@H]4c5ccccc5C[C@H]4O)nn3)CC2)n1` [Example 204, N-(6-(1-((1-((1R,2R)-2-hydroxy-2,3-dihydro-1H-inden-1-yl)-1H-1,2,3-triazol-4-yl)methyl)piperidin-4-yl)pyridin-2-yl)propionamide], the “μ and σ1 dual binding” value is listed as “++”.

Still in this assay, the particulars now being: transfected HEK-293 membranes (σ1), transfected CHO-K1 cell membranes (μ).
Turning to `CC(C)S(=O)(=O)Nc1cccc(C2CCN(Cc3cnn(Cc4cccc(F)n4)c3)CC2)c1` [Example 170, N-(3-(1-((1-((6-fluoropyridin-2-yl)methyl)-1H-pyrazol-4-yl)methyl)piperidin-4-yl)phenyl)propane-2-sulfonamide], the Ki range for both μ and σ1 (dual-binding class) was below 100 nM.
Same read-out and setting: as for `Oc1cccc(C2CCN(Cc3cnn(Cc4ccccn4)c3)CC2)c1` [Example 171, 3-(1-((1-(pyridin-2-ylmethyl)-1H-pyrazol-4-yl)methyl)piperidin-4-yl)phenol], the figure is below 500 nM; as for `Oc1cccc(C2CCN(Cc3cnn(Cc4ncccc4F)c3)CC2)c1` [Example 172, 3-(1-((1-((3-fluoropyridin-2-yl)methyl)-1H-pyrazol-4-yl)methyl)piperidin-4-yl)phenol], below 500 nM; as for `Oc1cccc(C2CCN(Cc3cnn(Cc4ccc(F)cn4)c3)CC2)c1` [Example 173, 3-(1-((1-((5-fluoropyridin-2-yl)methyl)-1H-pyrazol-4-yl)methyl)piperidin-4-yl)phenol], below 500 nM.
Take `CS(=O)(=O)Nc1cccc(C2CCN(Cc3cc(-c4ccccc4)no3)CC2)c1` [Example 174, N-(3-(1-((3-phenylisoxazol-5-yl)methyl)piperidin-4-yl)phenyl)methanesulfonamide]: the Ki range for both μ and σ1 (dual-binding class) was below 100 nM.
Still for that read-out and setting: then `Oc1cccc(C2CCN(Cc3cc(-c4ccccc4)no3)CC2)c1` [Example 176, 3-(1-((3-phenylisoxazol-5-yl)methyl)piperidin-4-yl)phenol], with below 100 nM; and `Oc1cccc(C2CCN(Cc3cc(Cc4ccccc4)no3)CC2)c1` [Example 177, 3-(1-((3-benzylisoxazol-5-yl)methyl)piperidin-4-yl)phenol], with below 100 nM.
As for `CS(=O)(=O)Nc1cccc(C2CCN(Cc3cc(Cc4ccccc4)no3)CC2)c1` [Example 178, N-(3-(1-((3-benzylisoxazol-5-yl)methyl)piperidin-4-yl)phenyl)methanesulfonamide], the Ki range for both μ and σ1 (dual-binding class) is below 500 nM.
Turning to `CS(=O)(=O)Nc1ccc(F)c(C2CCN(Cc3cc(-c4ccccc4)no3)CC2)c1` [Example 179, N-(4-fluoro-3-(1-((3-phenylisoxazol-5-yl)methyl)piperidin-4-yl)phenyl)methanesulfonamide], the Ki range for both μ and σ1 (dual-binding class) is below 500 nM.
Consider `CS(=O)(=O)Nc1cc(C2CCN(Cc3cc(-c4ccccc4)no3)CC2)ccc1F` [Example 180, N-(2-fluoro-5-(1-((3-phenylisoxazol-5-yl)methyl)piperidin-4-yl)phenyl)methanesulfonamide], for which the Ki range for both μ and σ1 (dual-binding class) was below 500 nM.
Still for that read-out and setting: then `CS(=O)(=O)Nc1cccc(C2CCN(Cc3cn(Cc4ccccc4)cn3)CC2)c1` [Example 183, N-(3-(1-((1-benzyl-1H-imidazol-4-yl)methyl)piperidin-4-yl)phenyl)methanesulfonamide], with below 500 nM; and `Oc1cccc(C2CCN(Cc3cn(Cc4ccccc4)cn3)CC2)c1` [Example 184, 3-(1-((1-benzyl-1H-imidazol-4-yl)methyl)piperidin-4-yl)phenol], with below 100 nM.
As for `CCC(=O)Nc1cccc(C2CCN(Cc3cn(-c4ccccc4)nn3)CC2)n1` [Example 190, N-(6-(1-((1-phenyl-1H-1,2,3-triazol-4-yl)methyl)piperidin-4-yl)pyridin-2-yl)propionamide], the Ki range for both μ and σ1 (dual-binding class) is below 500 nM.
In the case of `CS(=O)(=O)Nc1ccnc(C2CCN(Cc3cn(-c4ccccc4)nn3)CC2)c1` [Example 193, N-(2-(1-((1-phenyl-1H-1,2,3-triazol-4-yl)methyl)piperidin-4-yl)pyridin-4-yl)methanesulfonamide], the Ki range for both μ and σ1 (dual-binding class) was at least 500 nM.
With `CS(=O)(=O)Nc1cncc(C2CCN(Cc3cn(-c4ccccc4)nn3)CC2)c1` [Example 194, N-(5-(1-((1-phenyl-1H-1,2,3-triazol-4-yl)methyl)piperidin-4-yl)pyridin-3-yl)methanesulfonamide], the Ki range for both μ and σ1 (dual-binding class) was at least 500 nM.
For `CCC(=O)Nc1cncc(C2CCN(Cc3cn(-c4ccccc4)nn3)CC2)c1` [Example 195, N-(5-(1-((1-phenyl-1H-1,2,3-triazol-4-yl)methyl)piperidin-4-yl)pyridin-3-yl)propionamide], the Ki range for both μ and σ1 (dual-binding class) is at least 500 nM.
Regarding `CCC(=O)Nc1cc(C2CCN(Cc3cn(-c4ccccc4)nn3)CC2)ccn1` [Example 196, N-(4-(1-((1-phenyl-1H-1,2,3-triazol-4-yl)methyl)piperidin-4-yl)pyridin-2-yl)propionamide], the Ki range for both μ and σ1 (dual-binding class) was at least 500 nM.
As for `CS(=O)(=O)Nc1cc(C2CCN(Cc3cn(-c4ccccc4)nn3)CC2)ccn1` [Example 197, N-(4-(1-((1-phenyl-1H-1,2,3-triazol-4-yl)methyl)piperidin-4-yl)pyridin-2-yl)methanesulfonamide], the Ki range for both μ and σ1 (dual-binding class) was at least 500 nM.
Consider `Oc1cccc(C2CCN(Cc3cn(-c4ccccc4)nn3)CC2)n1` [Example 198, 6-(1-((1-phenyl-1H-1,2,3-triazol-4-yl)methyl)piperidin-4-yl)pyridin-2-ol], for which the Ki range for both μ and σ1 (dual-binding class) was at least 500 nM.
Same read-out and setting: as for `CS(=O)(=O)Nc1cccc(C2CCN(Cc3cc(-c4ccccc4)no3)CC2)n1` [Example 200, N-(6-(1-((3-phenylisoxazol-5-yl)methyl)piperidin-4-yl)pyridin-2-yl)methanesulfonamide], the figure is below 500 nM; as for `CCC(=O)Nc1cccc(C2CCN(Cc3cc(-c4ccccc4)no3)CC2)n1` [Example 201, N-(6-(1-((3-phenylisoxazol-5-yl)methyl)piperidin-4-yl)pyridin-2-yl)propionamide], below 500 nM.
For `CCC(=O)Nc1cccc(C2CCN(Cc3cnn(-c4ccccc4)c3)CC2)n1` [Example 202, N-(6-(1-((1-phenyl-1H-pyrazol-4-yl)methyl)piperidin-4-yl)pyridin-2-yl)propionamide], the Ki range for both μ and σ1 (dual-binding class) is below 100 nM.
As for `CS(=O)(=O)Nc1cccc(C2CCN(Cc3cnn(-c4ccccc4)c3)CC2)n1` [Example 203, N-(6-(1-((1-phenyl-1H-pyrazol-4-yl)methyl)piperidin-4-yl)pyridin-2-yl)methanesulfonamide], the Ki range for both μ and σ1 (dual-binding class) was below 500 nM.
